Data published in US11993603B2, “Preparation for 6-amino-1H-pyrazolo[3,4-d]pyrimidine-based JAK kinase inhibitor and application thereof” (INSTITUTE OF MATERIA MEDICA, CHINESE ACADEMY OF MEDICAL …, priority 2018, dated 2024).
Blank lines part the entries; values can stand above or below the compound they belong to.

Assays:
Assay type in all cases: biochemical
[1] = molecular target: JAK-1 (Homo sapiens (Human), UniProt P23458); assay: Inhibition test on JAK-1 kinase (FRET peptide substrate assay); conditions: kinase 1 nM, 1 h at room temperature
JAK-1, sequence (P23458 whole entry): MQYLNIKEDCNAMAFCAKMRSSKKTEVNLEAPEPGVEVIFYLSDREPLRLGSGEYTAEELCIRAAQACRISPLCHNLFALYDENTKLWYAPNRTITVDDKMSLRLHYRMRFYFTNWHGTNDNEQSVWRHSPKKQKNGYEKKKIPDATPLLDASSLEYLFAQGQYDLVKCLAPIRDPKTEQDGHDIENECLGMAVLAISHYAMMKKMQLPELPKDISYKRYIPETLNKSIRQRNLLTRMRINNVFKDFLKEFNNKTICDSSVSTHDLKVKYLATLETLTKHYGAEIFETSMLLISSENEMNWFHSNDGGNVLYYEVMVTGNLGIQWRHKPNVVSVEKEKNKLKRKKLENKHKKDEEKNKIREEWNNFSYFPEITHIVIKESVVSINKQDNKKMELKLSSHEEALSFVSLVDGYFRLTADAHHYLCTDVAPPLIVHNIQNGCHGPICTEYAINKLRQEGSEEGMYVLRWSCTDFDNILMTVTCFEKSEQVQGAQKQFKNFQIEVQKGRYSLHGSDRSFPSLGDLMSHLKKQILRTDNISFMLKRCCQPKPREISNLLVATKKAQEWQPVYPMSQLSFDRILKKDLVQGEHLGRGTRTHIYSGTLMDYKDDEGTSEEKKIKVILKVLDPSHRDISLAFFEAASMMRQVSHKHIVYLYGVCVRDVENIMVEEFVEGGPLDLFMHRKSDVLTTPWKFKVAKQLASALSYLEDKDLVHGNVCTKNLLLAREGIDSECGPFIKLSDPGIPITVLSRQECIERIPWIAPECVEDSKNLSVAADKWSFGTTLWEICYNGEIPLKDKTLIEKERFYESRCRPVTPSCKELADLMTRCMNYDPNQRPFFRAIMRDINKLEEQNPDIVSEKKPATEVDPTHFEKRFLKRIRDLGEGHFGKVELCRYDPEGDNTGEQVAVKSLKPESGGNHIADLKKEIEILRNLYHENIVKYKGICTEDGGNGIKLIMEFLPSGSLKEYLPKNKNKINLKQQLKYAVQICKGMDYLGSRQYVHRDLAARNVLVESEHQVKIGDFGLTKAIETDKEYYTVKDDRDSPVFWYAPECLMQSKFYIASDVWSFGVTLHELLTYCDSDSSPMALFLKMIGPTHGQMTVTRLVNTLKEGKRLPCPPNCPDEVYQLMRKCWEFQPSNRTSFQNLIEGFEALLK
Excerpt: (§1) Experiment Example (Inhibition Tests on JAK-1, JAK-2 and JAK-3 Kinases)
(§2) To evaluate the inhibitory activity of the compound on JAK-1, JAK-2 and JAK-3 kinases
(§3) A proteolytic enzyme is coupled to exert different proteolysis on a specific phosphorylated and nonphosphorylated peptide substrate based on fluorescence resonance energy transfer (FRET). Both ends of the peptide substrate were respectively labeled FRET energy donor coumarin and energy receptor fluorescein, and at this time, the donor was stimulated to produce energy transfer when the donor is close to a receptor.
(§4) In Kinase Reaction, JAK-1, JAK-2 or JAK-3 may transfer γ-phosphoric acid in ATP onto a single tyrosine residue of a peptide substrate; and there were JAK-1, JAK-2 or JAK-3 inhibitors in the system, γ-phosphoric acid groups on ATP would be not transferred onto the peptide substrate, thus resulting in the failure of phosphorylation. An evaluation experiment was designed based on the principle, a peptide substrate was designed with kinase phosphorylation sites, namely, protein restriction enzyme cutting sites; and both ends thereof were respectively connected with 2 fluorophores as a donor and a receptor respectively; if the kinase kept activity in the system, a γ-phosphonic acid group was transferred onto restriction enzyme cutting sites of the substrate, so that the γ-phosphonic acid group would not be cut and separated into two segments by a protease; moreover, under the stimulation of a laser having a specific wavelength, energy from a segment of fluorescence would be transferred onto another end of fluorophores, thus emitting energy. Otherwise, after kinase activity was inhibited, phosphoric acid groups would be not transferred, and restriction enzyme cutting sites in the substrate would be cut by a […] in the system to separate the substrate into two segments, thereby no energy transfer of fluorescence occurred. Based on this, the activity of the kinase was evaluated.
(§5) In this experiment, a 10 μl kinase reaction system was selected, firstly, 2.5 μl kinase (concentration: 1 nM), 2.5 μl peptide substrate (concentration: 2 μM), 2.5 μl ATP (concentration: […]) and 2.5 μl compound were added to each system for reaction for 1 h at room temperature, and then a 5 μl test solution was added for reaction for 1 h at room temperature, then a 5 μl stop buffer was added. A microplate reader (Synergy H1, BioTek, USA) was used to measure fluorescence intensity (emission intensity of coumarin at 445 nm and emission intensity of fluorescein at 520 nm were detected under the stimulation of 400 nm). The inhibitory activity of each compound was calculated, where it was believed that fluorescence intensity of a well not containing the kinase was 100% inhibited.

[2] = molecular target: JAK-2 (Homo sapiens (Human), UniProt O60674); assay: Inhibition test on JAK-2 kinase (FRET peptide substrate assay); conditions: kinase 1 nM, 1 h at room temperature
JAK-2, sequence (O60674 whole entry): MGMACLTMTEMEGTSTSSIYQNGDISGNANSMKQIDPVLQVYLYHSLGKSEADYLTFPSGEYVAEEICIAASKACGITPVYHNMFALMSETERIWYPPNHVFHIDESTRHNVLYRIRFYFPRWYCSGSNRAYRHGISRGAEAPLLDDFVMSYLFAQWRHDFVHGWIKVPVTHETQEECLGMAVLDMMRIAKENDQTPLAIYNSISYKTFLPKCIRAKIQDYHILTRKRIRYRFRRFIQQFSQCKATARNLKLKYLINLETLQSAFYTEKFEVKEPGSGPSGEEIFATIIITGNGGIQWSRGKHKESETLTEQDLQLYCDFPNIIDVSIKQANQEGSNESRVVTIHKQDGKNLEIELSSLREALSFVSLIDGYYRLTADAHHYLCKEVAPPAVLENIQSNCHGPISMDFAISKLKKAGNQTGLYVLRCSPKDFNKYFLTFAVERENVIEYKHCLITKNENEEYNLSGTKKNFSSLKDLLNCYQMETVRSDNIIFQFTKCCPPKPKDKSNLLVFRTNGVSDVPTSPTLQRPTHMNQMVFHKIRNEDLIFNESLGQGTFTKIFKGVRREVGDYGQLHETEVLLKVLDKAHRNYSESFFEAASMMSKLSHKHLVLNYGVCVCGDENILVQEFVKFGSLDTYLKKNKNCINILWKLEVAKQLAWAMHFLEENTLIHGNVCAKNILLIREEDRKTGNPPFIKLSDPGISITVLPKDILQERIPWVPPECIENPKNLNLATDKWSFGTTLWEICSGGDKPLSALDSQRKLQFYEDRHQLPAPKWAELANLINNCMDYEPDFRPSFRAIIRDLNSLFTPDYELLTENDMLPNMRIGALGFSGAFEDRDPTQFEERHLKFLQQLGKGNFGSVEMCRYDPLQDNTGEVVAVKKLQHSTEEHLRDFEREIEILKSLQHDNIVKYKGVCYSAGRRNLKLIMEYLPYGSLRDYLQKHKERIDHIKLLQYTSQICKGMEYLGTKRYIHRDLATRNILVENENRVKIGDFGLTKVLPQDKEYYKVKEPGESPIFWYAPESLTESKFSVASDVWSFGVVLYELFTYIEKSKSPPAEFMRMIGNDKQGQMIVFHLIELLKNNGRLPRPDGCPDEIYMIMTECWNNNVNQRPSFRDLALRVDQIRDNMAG
Excerpt: as §1, §2, §3, §4, §5

[3] = molecular target: JAK-3 (Homo sapiens (Human), UniProt P52333); assay: Inhibition test on JAK-3 kinase (FRET peptide substrate assay); conditions: kinase 1 nM, 1 h at room temperature; read-out: IC50 (nM) JAK-3
JAK-3, sequence (P52333 whole entry): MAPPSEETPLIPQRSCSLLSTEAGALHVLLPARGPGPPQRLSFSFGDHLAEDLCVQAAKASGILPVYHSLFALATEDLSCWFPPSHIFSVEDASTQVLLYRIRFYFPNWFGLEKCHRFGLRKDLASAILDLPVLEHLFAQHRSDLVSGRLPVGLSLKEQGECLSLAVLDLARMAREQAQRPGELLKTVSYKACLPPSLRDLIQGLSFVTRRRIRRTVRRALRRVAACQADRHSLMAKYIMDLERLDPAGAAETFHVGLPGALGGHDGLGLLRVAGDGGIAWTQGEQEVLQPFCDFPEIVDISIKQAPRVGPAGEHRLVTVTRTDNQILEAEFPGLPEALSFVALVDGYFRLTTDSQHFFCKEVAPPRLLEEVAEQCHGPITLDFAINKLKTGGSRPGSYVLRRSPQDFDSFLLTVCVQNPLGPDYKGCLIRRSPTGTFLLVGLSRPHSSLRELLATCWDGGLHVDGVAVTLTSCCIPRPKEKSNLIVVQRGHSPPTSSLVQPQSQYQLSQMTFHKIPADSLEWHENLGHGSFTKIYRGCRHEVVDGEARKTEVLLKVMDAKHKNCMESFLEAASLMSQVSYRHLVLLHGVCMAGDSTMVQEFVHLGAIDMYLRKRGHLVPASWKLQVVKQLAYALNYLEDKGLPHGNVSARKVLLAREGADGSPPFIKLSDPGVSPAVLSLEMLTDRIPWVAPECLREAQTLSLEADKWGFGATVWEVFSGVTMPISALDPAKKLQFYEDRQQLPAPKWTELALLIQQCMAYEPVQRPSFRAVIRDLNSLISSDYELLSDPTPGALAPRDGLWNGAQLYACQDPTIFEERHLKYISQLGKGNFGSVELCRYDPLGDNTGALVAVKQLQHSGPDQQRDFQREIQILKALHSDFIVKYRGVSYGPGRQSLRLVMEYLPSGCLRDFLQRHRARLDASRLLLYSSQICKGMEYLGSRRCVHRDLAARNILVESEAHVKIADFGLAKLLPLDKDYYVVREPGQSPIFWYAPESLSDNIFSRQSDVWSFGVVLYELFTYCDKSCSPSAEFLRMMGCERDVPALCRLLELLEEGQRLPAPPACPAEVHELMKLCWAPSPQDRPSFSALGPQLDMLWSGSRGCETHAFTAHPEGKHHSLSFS
Excerpt: as §1, §2, §3, §4, §5

IC50 [1]: 1410 nM
IC50 [2]: 770 nM
IC50 [3]: 1.4 nM
Structure (SMILES): C=CC(=O)Nc1ccc(Cn2ncc3cnc(Nc4cnn(C)c4)nc32)cc1 [Example 16, N-(4-((6-((1-methyl-1H-pyrazol-4-yl)amino)-1H-pyrazolo[3,4-d]pyrimidine-1-yl)methyl)phenyl)acrylamide]

IC50 [1]: 1990 nM
IC50 [2]: 1280 nM
IC50 [3]: 2.8 nM
Structure (SMILES): C=CC(=O)Nc1ccc(Cn2ncc3cnc(Nc4ccccc4)nc32)cc1 [Example 18, N-(4-((6-aniline-1H-pyrazolo[3,4-d]pyrimidin-1-yl)methyl)phenyl)acrylamide]

IC50 [1]: 1580 nM
IC50 [2]: 1800 nM
IC50 [3]: 3.7 nM
Structure (SMILES): C=CC(=O)Nc1ccc(Cn2ncc3cnc(Nc4ccc(F)cc4)nc32)cc1 [Example 19, N-(4-((6-((4-fluorophenyl)amino)-1H-pyrazolo[3,4-d]pyrimidin-1-yl)methyl)phenyl)acrylamide]

IC50 [1]: 934 nM
IC50 [2]: 892 nM
IC50 [3]: 1.7 nM
Structure (SMILES): C=CC(=O)Nc1ccc(Cn2ncc3cnc(Nc4ccc(N5CCOCC5)cc4)nc32)cc1 [Example 20, N-(4-((6-((4-morpholinylphenyl)amino)-1H-pyrazolo[3,4-d]pyrimidin-1-yl)methyl)phenyl)acrylamide]

IC50 [1]: 2850 nM
IC50 [2]: 1800 nM
IC50 [3]: 0.2 nM
Structure (SMILES): C=CC(=O)Nc1ccc(Cn2ncc3cnc(Nc4ccc(N5CCN(C)CC5)cc4)nc32)cc1 [Example 21, N-(4-((6-((4-(4-methylpiperazin-1-yl)phenyl)amino)-1H-pyrazolo[3,4-d]pyrimidin-1-yl)methyl)phenyl)acrylamide]

IC50 [1]: 2400 nM
IC50 [2]: 1040 nM
IC50 [3]: 1.2 nM
Structure (SMILES): C/C=C/C(=O)Nc1ccc(Cn2ncc3cnc(Nc4ccccc4)nc32)cc1 [Example 25, N-(4-((6-aniline-1H-pyrazolo[3,4-d]pyrimidin-1-yl)methyl)phenyl)but-2-enamide]

IC50 [1]: 880 nM
IC50 [2]: 804 nM
IC50 [3]: 0.3 nM
Structure (SMILES): C/C=C/C(=O)Nc1ccc(Cn2ncc3cnc(Nc4ccc(F)cc4)nc32)cc1 [Example 26, N-(4-((6-((4-fluorophenyl)amino)-1H-pyrazolo[3,4-d]pyrimidine-1-yl)methyl)phenyl)but-2-enamide]

Second part, the compound before the results:

Structure (SMILES): C/C=C/C(=O)Nc1cccc(Cn2ncc3cnc(Nc4ccc(N5CCN(C)CC5)cc4)nc32)c1 [Example 14, N-(3-((6-((4-(4-methylpiperazin-1-yl)phenyl)amino)-1H-pyrazolo[3,4-d]pyrimidin-1-yl)methyl)phenyl)but-2-enamide]
IC50 [1]: 274 nM
IC50 [2]: 1310 nM
IC50 [3]: 0.9 nM

Structure (SMILES): C=CC(=O)Nc1ccc(Cn2ncc3cnc(Nc4cnn(CCOC)c4)nc32)cc1 [Example 15, N-(4-((6-((1-(2-methoxyethyl)-1H-pyrazol-4-yl)amino)-1H-pyrazolo[3,4-d]pyrimidine-1-yl)methyl)phenyl)acrylamide]
IC50 [1]: 1540 nM
IC50 [2]: 602 nM
IC50 [3]: 0.5 nM

Structure (SMILES): C=CC(=O)Nc1ccc(Cn2ncc3cnc(Nc4cnn(CCO)c4)nc32)cc1 [Example 17, N-(4-((6-((1-(2-hydroxyethyl)-1H-pyrazol-4-yl)amino)-1H-pyrazolo[3,4-d]pyrimidin-1-yl)methyl)phenyl)acrylamide]
IC50 [1]: 1420 nM
IC50 [2]: 846 nM
IC50 [3]: 2 nM

Structure (SMILES): C/C=C/C(=O)Nc1ccc(Cn2ncc3cnc(Nc4cnn(CCOC)c4)nc32)cc1 [Example 22, N-(4-((6-((1-(2-methoxy-ethyl)-1H-pyrazol-4-yl)amino)-1H-pyrazolo[3,4-d]pyrimidine-1-yl)methyl)phenyl)but-2-enamide]
IC50 [1]: 918 nM
IC50 [2]: 1250 nM
IC50 [3]: 2 nM

Structure (SMILES): C/C=C/C(=O)Nc1ccc(Cn2ncc3cnc(Nc4cnn(C)c4)nc32)cc1 [Example 23, N-(4-((6-((1-methyl-1H-pyrazol-4-yl)amino)-1H-pyrazolo[3,4-d]pyrimidin-1-yl)methyl)phenyl)but-2-enamide]
IC50 [1]: 940 nM
IC50 [2]: 697 nM
IC50 [3]: 0.1 nM

Structure (SMILES): C/C=C/C(=O)Nc1ccc(Cn2ncc3cnc(Nc4cnn(CCO)c4)nc32)cc1 [Example 24, N-(4-((6-((1-(2-hydroxyethyl)-1H-pyrazol-4-yl)amino)-1H-pyrazolo[3,4-d]pyrimidin-1-yl)methyl)phenyl)but-2-enamide]
IC50 [1]: 1120 nM
IC50 [2]: 948 nM
IC50 [3]: 0.2 nM

Structure (SMILES): C/C=C/C(=O)Nc1ccc(Cn2ncc3cnc(Nc4ccc(N5CCOCC5)cc4)nc32)cc1 [Example 27, N-(4-((6-((4-morpholinylphenyl)amino)-1H-pyrazolo[3,4-d]pyrimidin-1-yl)methyl)phenyl)but-2-enamide]
IC50 [1]: 960 nM
IC50 [2]: 893 nM
IC50 [3]: 2 nM

Structure (SMILES): C/C=C/C(=O)Nc1ccc(Cn2ncc3cnc(Nc4ccc(N5CCN(C)CC5)cc4)nc32)cc1 [Example 28, N-(4-((6-((4-(4-methylpiperazin-1-yl)phenyl)amino)-1H-pyrazolo[3,4-d]pyrimidin-1-yl)methyl)phenyl)but-2-enamide]
IC50 [1]: 4090 nM
IC50 [2]: 790 nM
IC50 [3]: 2.3 nM
